Test results reported in the supplement of paper PMC8967900.

How the values were obtained:
Assay in all cases: selective drug sensitivity score (sDSS, relative to normal bone marrow) (sDSS (score)); higher = more potent and effective on the cell line relative to normal bone marrow cells
Conditions in all cases: 72 h
HAL-01 = test system: HAL-01
JURKAT = test system: JURKAT
PEER = test system: PEER
KASUMI-9 = test system: KASUMI-9
COG-LL-317 = test system: COG-LL-317
697 = test system: 697
MHH-CALL-4 = test system: MHH-CALL-4
ALL-PO = test system: ALL-PO
MN-60 = test system: MN-60
MOLT-16 = test system: MOLT-16
COG-LL-319h = test system: COG-LL-319h
SUP-B15 = test system: SUP-B15
SEM cells = test system: SEM cells
P30-OHKUBO = test system: P30-OHKUBO
TMD5 = test system: TMD5
COG-LL-355h = test system: COG-LL-355h
CCRF-HSB2 = test system: CCRF-HSB2
LC4-1 = test system: LC4-1
TANOUE = test system: TANOUE
KOPN-8 = test system: KOPN-8
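Further: ALL cell lines in 384-well plates, five doses spanning 10,000-fold, each plate scaled between vehicle and 100 µmol/L benzalkonium chloride controls, sDSS an adapted area-under-curve metric.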

| Compound | selective drug sensitivity score (HAL-01) | selective drug sensitivity score (JURKAT) | selective drug sensitivity score (PEER) | selective drug sensitivity score (KASUMI-9) | selective drug sensitivity score (COG-LL-317) | selective drug sensitivity score 697 | selective drug sensitivity score (MHH-CALL-4) | selective drug sensitivity score (ALL-PO) | selective drug sensitivity score (MN-60) | selective drug sensitivity score (MOLT-16) | selective drug sensitivity score (COG-LL-319h) | selective drug sensitivity score (SUP-B15) | selective drug sensitivity score (SEM cells) | selective drug sensitivity score (P30-OHKUBO) | selective drug sensitivity score (TMD5) | selective drug sensitivity score (COG-LL-355h) | selective drug sensitivity score (CCRF-HSB2) | selective drug sensitivity score (LC4-1) | selective drug sensitivity score (TANOUE) | selective drug sensitivity score (KOPN-8) |
| --- | --- | --- | --- | --- | --- | --- | --- | --- | --- | --- | --- | --- | --- | --- | --- | --- | --- | --- | --- | --- |
| Cc1c(-c2ccc(N3CCc4cccc(C(=O)Nc5nc6ccccc6s5)c4C3)nc2C(=O)O)cnn1CC12CC3CC(CC(C3)C1)C2 (top concentration 1000 nM) | -1.86 | 7.34 | 19.3 | -2.26 | 25.9 | -1.76 | 2.24 | -1.86 | -2.26 | 0.54 | 19.4 | 9.34 | -1.66 | -2.26 | -2.26 | 18.2 | 10.2 | -2.26 | -2.26 | 0.74 |
| O=C(NOC[C@H](O)CO)c1ccc(F)c(F)c1Nc1ccc(I)cc1F (top concentration 1000 nM) | 6.34 | -3.96 | 0.94 | 4.44 | -1.66 | 0.14 | 6.24 | 4.34 | -3.56 | -1.36 | 2.44 | 13.5 | -3.16 | -4.16 | 2.94 | 6.94 | 0.44 | 6.24 | -2.46 | 10.1 |
| CO[C@@H](C)Cn1c(=O)n(C)c2cnc3ccc(-c4cncc(C(C)(C)O)c4)cc3c21 (top concentration 2500 nM) | 1.98 | 2.98 | 3.38 | 8.68 | 0.78 | 9.78 | 1.08 | 4.88 | 3.88 | 11.9 | 5.48 | 6.98 | 5.08 | 8.18 | -1.22 | 3.88 | 5.58 | 2.68 | -5.12 | 13.9 |
| Cc1cccc(CC(=O)N2CCc3c2ccc(-c2cn(C)c4ncnc(N)c24)c3F)n1 (top concentration 2500 nM) | 2.92 | 8.22 | 7.02 | 2.92 | -0.68 | 3.42 | 4.22 | 0.22 | 1.82 | 5.62 | 0.52 | 7.22 | 0.32 | 3.52 | -0.68 | -0.28 | 2.82 | 4.72 | 2.52 | -0.68 |
| CNC(=O)c1ccccc1Nc1nc(Nc2ccc3c(c2OC)CCC[C@H](N2CCN(CCO)CC2)C3)ncc1Cl (top concentration 5000 nM) | 0.46 | -2.54 | -1.44 | 0.26 | -2.14 | 2.86 | -0.94 | 5.76 | -2.24 | 2.06 | 8.86 | 3.96 | 3.06 | 6.36 | -2.74 | 6.96 | -1.44 | 2.96 | -5.34 | 0.76 |
| COc1cc2ncnc(Oc3cccc(NC(=O)Nc4cc(C(C)(C)C(F)(F)F)on4)c3)c2cc1OC (top concentration 10000 nM) | 3.4 | 0 | 17.8 | 7.5 | 0 | 10.4 | 3.4 | 11.5 | 0 | 2.5 | 12.3 | 28.4 | 14.5 | 3.2 | 15.7 | 4.9 | 23.2 | 1.1 | 0 | 16.7 |
| C[C@@H](Oc1cc(-n2cnc3ccc(CN4CCN(C)CC4)cc32)sc1C(N)=O)c1ccccc1C(F)(F)F (top concentration 10000 nM) | 16.6 | 22.8 | 30 | 26 | 25.4 | 20.5 | -3.18 | 22 | 3.72 | 20.2 | 14.7 | 27.2 | 28.3 | 21.7 | 11.8 | 5.62 | 24.2 | 22.6 | -11.2 | 19.9 |
| Nc1nccc(-c2c(-c3ccc(F)cc3)ncn2C2CCCCC2)n1 (top concentration 10000 nM) | 1 | 0.1 | 1.4 | 1.7 | 4.4 | 4.8 | 0 | 3 | 0 | 2.6 | 2.5 | 2.4 | 1.2 | 4.3 | 1.5 | 0 | 3.4 | 3.1 | 0 | 9.2 |
| O=C(O)c1ccc(-c2c[nH]c3ncc(-c4ccccc4)cc23)cc1C1CCCC1 (top concentration 10000 nM) | 4.26 | 0.16 | 2.56 | 0.66 | 2.36 | 0.96 | -1.44 | 5.86 | -1.44 | 3.66 | 1.36 | -1.44 | 7.56 | 3.36 | 1.66 | -0.44 | 3.16 | -0.94 | -1.44 | 4.16 |
